Consider eight compounds from patent US6518243B1, “Desleucyl glycopeptide antibiotics and methods of making same” (Trustees of Princeton University, priority 1999, dated 2003).

Experiment [1] relates to E. faecalis (ATCC 292121). The experiment in a line: Zone of inhibition screen, 96 well agar array format. Type of experiment: cell-based. The note with it: zone of inhibition relative to 1 mg/ml stock solution of p-chlorobiphenylvancomycin. Here is the method:
The antibacterial activity of each of the compounds against the bacterial strains E. faceium (ATCC 49624), S. epidermidis (ATCC 12228), S. aureus (ATCC 29213), E. faecalis (CL 4877) and E. faecalis (ATCC 292121) was tested. Each of the compounds was screened in a 96 will agar array format.

The next experiment relates to E. faceium (ATCC 49624). The experiment is described as above. The experiment is classed as cell-based, E. faecium. The note with it: zone of inhibition relative to 1 mg/ml stock solution of p-chlorobiphenylvancomycin. The procedure, abridged:
(§1)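 Panel screening of every compound against several bacterial strains, among them E. faecium ATCC 49624, was done in a 96-well agar array.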

The subject of the next experiment is E. faecium ATCC 49624. The experiment in a line: MIC determination in BHI media, OD600. The experiment is classed as cell-based. The note with it: BHI + 0.1% casamino acids, 18 hours at 37° C., ≧90% OD600 inhibition. The procedure, abridged:
(§2)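 Starting cell density was near 5×10^5 CFU/ml, taken from exponentially growing cultures. Incubation with the DMSO dilution series ran 18 hours at 37° C.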

In another experiment the test system is E. faecium CL 4931. The experiment in a line: MIC determination in BHI media, OD600. The experiment is classed as cell-based. The note with it: BHI + 0.1% casamino acids, 18 hours at 37° C., ≧90% OD600 inhibition. The method, boiled down:
as §2

A further experiment has as its system E. Faecalis CL 4877. Briefly: MIC determination in BHI media, OD600. The experiment is classed as cell-based. The note with it: BHI + 0.1% casamino acids, 18 hours at 37° C., ≧90% OD600 inhibition. The method, boiled down:
as §2

Another experiment has as its system E. faecalis (CL 4877). Briefly: Zone of inhibition screen, 96 well agar array format. Type of experiment: cell-based. Set-up: scale not given here. The note with it: zone of inhibition relative to 1 mg/ml stock solution of p-chlorobiphenylvancomycin. The procedure, abridged: as §1
In experiment [2] the test system is S. epidermidis (ATCC 12228). Described as above. Type of experiment: cell-based. Set-up: scale not given here. The note with it: zone of inhibition relative to 1 mg/ml stock solution of p-chlorobiphenylvancomycin. The method, boiled down: as §1
The next experiment relates to S aureus ATCC 29213. Briefly: MIC determination in BHI media, OD600. The experiment is classed as cell-based. The note with it: BHI + 0.1% casamino acids, 18 hours at 37° C., ≧90% OD600 inhibition. The method, boiled down:
as §2

The next experiment deals with E. faecalis ATCC 29212. The experiment in a line: MIC determination in BHI media, OD600. The experiment is classed as cell-based. The note with it: BHI + 0.1% casamino acids, 18 hours at 37° C., ≧90% OD600 inhibition. The method, boiled down: as §2
The subject of another experiment is S. Aureus ATCC 33591. Briefly: MIC determination in BHI media, OD600. The note with it: BHI + 0.1% casamino acids, 18 hours at 37° C., ≧90% OD600 inhibition. The experiment is classed as cell-based. The method, boiled down:
as §2

For the next experiment, the system named is S. aureus (ATCC 29213). Briefly: Zone of inhibition screen, 96 well agar array format. Set-up: scale not given here. Type of experiment: cell-based. The note with it: zone of inhibition relative to 1 mg/ml stock solution of p-chlorobiphenylvancomycin. The method, boiled down:
as §1
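For zone score, E. faecalis ATCC 29212 in this document: score 3 means fourfold and score 4 sixteenfold the reference zone size.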
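For zone score, E. faecium ATCC 49624 in this document: score 3 means fourfold and score 4 sixteenfold the reference zone size.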

On to `CC1OC(OC2C(Oc3c4cc5cc3Oc3ccc(cc3Cl)C(O)C3NC(=O)C(NC(=O)C5NC(=O)C(CC(N)=O)NC(=O)C(NC(=O)C(N)CCC(N)=O)C(O)c5ccc(c(Cl)c5)O4)c4ccc(O)c(c4)-c4c(O)cc(O)cc4C(C(=O)O)NC3=O)OC(CO)C(O)C2O)CC(C)(NCc2ccc(-c3ccc(Cl)cc3)cc2)C1O` (stereo not shown) [Compound 57], for which the “zone score, E. faecalis ATCC 29212” value in [1] is given as 2. Further, in the experiment with E. faceium (ATCC 49624), the “zone score, E. faecium ATCC 49624” value is on record as 2.
In the case of `CC1OC(OC2C(Oc3c4cc5cc3Oc3ccc(cc3Cl)C(O)C3NC(=O)C(NC(=O)C5NC(=O)C(CC(N)=O)NC(=O)C(NC(=O)C(N)CCCCNC(=O)CCCCC5SCC6NC(=O)NC65)C(O)c5ccc(c(Cl)c5)O4)c4ccc(O)c(c4)-c4c(O)cc(O)cc4C(C(=O)O)NC3=O)OC(CO)C(O)C2O)CC(C)(NCc2ccc(-c3ccc(Cl)cc3)cc2)C1O` (stereo not shown) [Compound 75], the “zone score, E. faecalis ATCC 29212” value in experiment [1] was 2. Moreover, the MIC E. faecium ATCC 49624 in the experiment on E. faecium ATCC 49624 came out at 0.39 µg/mL. Also, in the experiment on E. faecium CL 4931, the MIC E. faecium CL 4931 is 25 µg/mL. The MIC E. faecalis CL 4877 in the experiment on E. Faecalis CL 4877 stood at 25 µg/mL. Also, the “zone score, E. faecalis CL 4877” value in the experiment with E. faecalis (CL 4877) was found to be 2. Also, in experiment [2], the “zone score, S. epidermidis ATCC 12228” value was 2. Further, in the experiment on E. faceium (ATCC 49624), the “zone score, E. faecium ATCC 49624” value is 2.
For `CC1OC(OC2C(Oc3c4cc5cc3Oc3ccc(cc3Cl)C(O)C3NC(=O)C(NC(=O)C5NC(=O)C(CC(N)=O)NC(=O)C(N)C(O)c5ccc(c(Cl)c5)O4)c4ccc(O)c(c4)-c4c(O)cc(O)cc4C(C(=O)O)NC3=O)OC(CO)C(O)C2O)CC(C)(NCc2ccc(-c3ccc(Cl)cc3)cc2)C1O` (stereo not shown) [Compound 522, Des-Lecyl Vancomycin, reference compound], in the experiment with S aureus ATCC 29213, the MIC S. aureus ATCC 29213 was greater than 25 µg/mL. The MIC E. faecium ATCC 49624 in the experiment with E. faecium ATCC 49624 is greater than 25 µg/mL. In addition, the MIC E. faecium CL 4931 in the experiment with E. faecium CL 4931 is greater than 25 µg/mL. In addition, the MIC E. faecalis ATCC 29212 in the experiment on E. faecalis ATCC 29212 is greater than 25 µg/mL. In addition, the MIC S. aureus ATCC 33591 in the experiment with S. Aureus ATCC 33591 is greater than 25 µg/mL. Also, the MIC E. faecalis CL 4877 in the experiment with E. Faecalis CL 4877 was greater than 25 µg/mL.
On to `C[C@H]1O[C@H](O[C@H]2[C@H](Oc3c4cc5cc3Oc3ccc(cc3Cl)[C@@H](O)[C@@H](NC(=O)[C@H](N)Cc3cccnc3)C(=O)N[C@@H](CC(N)=O)C(=O)N[C@H]5C(=O)N[C@H]3C(=O)N[C@H](C(=O)N[C@@H](C(=O)O)c5cc(O)cc(O)c5-c5cc3ccc5O)[C@H](O)c3ccc(c(Cl)c3)O4)O[C@H](CO)[C@@H](O)[C@@H]2O)C[C@@](C)(NCc2ccc(-c3ccc(Cl)cc3)cc2)[C@H]1O` [Compound 556], for which, in the experiment with S aureus ATCC 29213, the MIC S. aureus ATCC 29213 worked out at 0.78 µg/mL. Moreover, the MIC E. faecium ATCC 49624 in the experiment with E. faecium ATCC 49624 came out at 0.39 µg/mL. The MIC E. faecium CL 4931 in the experiment with E. faecium CL 4931 stood at 25 µg/mL. In addition, the MIC E. faecalis ATCC 29212 in the experiment with E. faecalis ATCC 29212 came out at 0.78 µg/mL. Also, in the experiment on S. Aureus ATCC 33591, the MIC S. aureus ATCC 33591 worked out at 0.39 µg/mL. The MIC E. faecalis CL 4877 in the experiment on E. Faecalis CL 4877 worked out at 25 µg/mL.
With `CNCC(=O)N[C@H]1C(=O)N[C@@H](CC(N)=O)C(=O)N[C@H]2C(=O)N[C@H]3C(=O)N[C@H](C(=O)N[C@@H](C(=O)O)c4cc(O)cc(O)c4-c4cc3ccc4O)[C@H](O)c3ccc(c(Cl)c3)Oc3cc2cc(c3O[C@@H]2O[C@H](CO)[C@@H](O)[C@H](O)[C@H]2O[C@@H]2C[C@@](C)(NCc3ccc(-c4ccc(Cl)cc4)cc3)[C@@H](O)[C@@H](C)O2)Oc2ccc(cc2Cl)[C@H]1O` [Compound 8], in experiment [1], the “zone score, E. faecalis ATCC 29212” value is on record as 2. Moreover, the “zone score, E. faecalis CL 4877” value with E. faecalis (CL 4877) stood at 2.
For `C[C@H]1O[C@H](O[C@H]2[C@H](Oc3c4cc5cc3Oc3ccc(cc3Cl)[C@@H](O)[C@@H](NC(=O)[C@H](N)Cc3c[nH]c6ccccc36)C(=O)N[C@@H](CC(N)=O)C(=O)N[C@H]5C(=O)N[C@H]3C(=O)N[C@H](C(=O)N[C@@H](C(=O)O)c5cc(O)cc(O)c5-c5cc3ccc5O)[C@H](O)c3ccc(c(Cl)c3)O4)O[C@H](CO)[C@@H](O)[C@@H]2O)C[C@@](C)(NCc2ccc(-c3ccc(Cl)cc3)cc2)[C@H]1O` [Compound 25], the “zone score, E. faecalis ATCC 29212” value in experiment [1] stood at 2. The MIC S. aureus ATCC 29213 in the experiment on S aureus ATCC 29213 turned out to be 0.25 µg/mL. The MIC E. faecium ATCC 49624 in the experiment with E. faecium ATCC 49624 was determined as 0.25 µg/mL. Also, in the experiment with E. faecalis ATCC 29212, the MIC E. faecalis ATCC 29212 was determined as 0.39 µg/mL. Also, the MIC S. aureus ATCC 33591 in the experiment with S. Aureus ATCC 33591 is 0.25 µg/mL. In the experiment on S. aureus (ATCC 29213), the “zone score, S. aureus ATCC 29213” value is 2. Besides, in the experiment on E. faecalis (CL 4877), the “zone score, E. faecalis CL 4877” value is given as 2. Further, the “zone score, E. faecium ATCC 49624” value in the experiment with E. faceium (ATCC 49624) was 2.
Turning to `CC(O)C(N)C(=O)NC1C(=O)NC(CC(N)=O)C(=O)NC2C(=O)NC3C(=O)NC(C(=O)NC(C(=O)O)c4cc(O)cc(O)c4-c4cc3ccc4O)C(O)c3ccc(c(Cl)c3)Oc3cc2cc(c3OC2OC(CO)C(O)C(O)C2OC2CC(C)(NCc3ccc(-c4ccc(Cl)cc4)cc3)C(O)C(C)O2)Oc2ccc(cc2Cl)C1O` (stereo not shown) [Compound 64], the “zone score, E. faecalis ATCC 29212” value in [1] came to 2. Moreover, in the experiment with S aureus ATCC 29213, the MIC S. aureus ATCC 29213 was determined as 0.78 µg/mL. Also, the MIC E. faecium ATCC 49624 in the experiment with E. faecium ATCC 49624 came to 0.39 µg/mL. For the same compound, the MIC E. faecium CL 4931 in the experiment with E. faecium CL 4931 was 25 µg/mL. Moreover, the MIC S. aureus ATCC 33591 with S. Aureus ATCC 33591 was 0.78 µg/mL. In the experiment with E. faecalis (CL 4877), the “zone score, E. faecalis CL 4877” value was found to be 2.
For `C[C@H]1O[C@H](O[C@H]2[C@H](Oc3c4cc5cc3Oc3ccc(cc3Cl)[C@@H](O)[C@@H](NC(=O)CN)C(=O)N[C@@H](CC(N)=O)C(=O)N[C@H]5C(=O)N[C@H]3C(=O)N[C@H](C(=O)N[C@@H](C(=O)O)c5cc(O)cc(O)c5-c5cc3ccc5O)[C@H](O)c3ccc(c(Cl)c3)O4)O[C@H](CO)[C@@H](O)[C@@H]2O)C[C@@](C)(NCc2ccc(-c3ccc(Cl)cc3)cc2)[C@H]1O` [Compound 28], in experiment [1], the “zone score, E. faecalis ATCC 29212” value worked out at 2. The “zone score, E. faecalis CL 4877” value in the experiment on E. faecalis (CL 4877) amounted to 2. Also, the “zone score, E. faecium ATCC 49624” value with E. faceium (ATCC 49624) was determined as 2.
